{
  "source": "ChEMBL document CHEMBL1127974",
  "about": "“Design, synthesis, and activity of conformationally-constrained macrocyclic peptide-based inhibitors of HIV protease” (Bioorg Med Chem Lett, 1994)",
  "key": {"[1]": {"biological_target": "T1, Human immunodeficiency virus type 1 protease (Human immunodeficiency virus 1, UniProt Q72874)", "assay": "In vitro inhibition HIV-1 IIIB protease."}, "MT2": {"test_system": "MT2", "assay": "Effective concentration against HIV infected MT-2 cell line", "format": "functional, cell-based", "details": "Homo sapiens"}, "[2]": {"biological_target": "T1, Human immunodeficiency virus type 1 protease", "assay": "In vitro inhibitory activity of compound against HIV protease from BRU (IIIB) strain of HIV- 1 virus was determined"}},
  "data": [
    {"smiles": "CC(C)(C)NC(=O)[C@@H]1CCCN1C[C@@H](O)[C@@H]1Cc2ccc(cc2)OCCCCOc2cc3ccccc3cc2C(=O)N[C@@H](CC(N)=O)C(=O)N1", "values": [
      {"measurement": "IC50", "setting": "[1]", "value": 900, "unit": "nM"}
    ]},
    {"smiles": "CC(C)[C@@H]1NC(=O)CCCCCCCOc2ccc(cc2)C[C@@H]([C@H](O)CN2CC3CCCCC3C[C@H]2C(=O)NC(C)(C)C)NC1=O", "note": "(stereo partly drawn)", "values": [
      {"measurement": "IC50", "setting": "[1]", "value": 3.4, "unit": "nM"},
      {"measurement": "EC50", "setting": "MT2", "value": 26, "unit": "nM"}
    ]},
    {"smiles": "CC(C)(C)NC(=O)[C@@H]1CCCN1C[C@@H](O)[C@@H]1Cc2ccc(cc2)OCCOc2cc3ccccc3cc2C(=O)N[C@@H](CC(N)=O)C(=O)N1", "values": [
      {"measurement": "IC50", "setting": "[1]", "value": 450, "unit": "nM"}
    ]},
    {"smiles": "CC(C)[C@@H]1NC(=O)c2cc3ccccc3cc2OCCCOc2ccc(cc2)C[C@@H]([C@H](O)CN2CC3CCCCC3C[C@H]2C(=O)NC(C)(C)C)NC1=O", "note": "(stereo partly drawn)", "values": [
      {"measurement": "IC50", "setting": "[1]", "value": 5.5, "unit": "nM"},
      {"measurement": "EC50", "setting": "MT2", "value": 17, "unit": "nM"}
    ]},
    {"smiles": "CC(C)[C@@H]1NC(=O)CCCCCOc2ccc(cc2)C[C@@H]([C@H](O)CN2CC3CCCCC3C[C@H]2C(=O)NC(C)(C)C)NC1=O", "note": "(stereo partly drawn)", "values": [
      {"measurement": "IC50", "setting": "[1]", "value": 1.5, "unit": "nM"},
      {"measurement": "EC50", "setting": "MT2", "value": 8, "unit": "nM"}
    ]},
    {"smiles": "CC(C)(C)NC(=O)[C@@H]1C[C@@H]2CCCC[C@@H]2CN1C[C@@H](O)[C@@H]1Cc2ccc(cc2)OCCCCOc2cc3ccccc3cc2C(=O)N[C@@H](CC(N)=O)C(=O)N1", "values": [
      {"measurement": "IC50", "setting": "[1]", "value": 88, "unit": "nM"},
      {"measurement": "EC50", "setting": "MT2", "value": 315, "unit": "nM"}
    ]},
    {"smiles": "CC(C)[C@@H]1NC(=O)/C=C\\CCCCCOc2ccc(cc2)C[C@@H]([C@H](O)CN2CC3CCCCC3C[C@H]2C(=O)NC(C)(C)C)NC1=O", "note": "(stereo partly drawn)", "values": [
      {"measurement": "IC50", "setting": "[1]", "value": 25, "unit": "nM"},
      {"measurement": "EC50", "setting": "MT2", "value": 216, "unit": "nM"}
    ]},
    {"smiles": "CC(C)(C)NC(=O)[C@@H]1CCCN1C[C@H](O)[C@@H]1Cc2ccc(cc2)OCCCOc2cc3ccccc3cc2C(=O)N[C@@H](CC(N)=O)C(=O)N1", "values": [
      {"measurement": "IC50", "setting": "[1]", "value": 90000, "unit": "nM"}
    ]},
    {"smiles": "CC(C)(C)NC(=O)[C@@H]1C[C@@H]2CCCC[C@@H]2CN1C[C@@H](O)[C@@H]1Cc2ccc(cc2)OCCOc2cc3ccccc3cc2C(=O)N[C@@H](CC(N)=O)C(=O)N1", "values": [
      {"measurement": "IC50", "setting": "[1]", "value": 13, "unit": "nM"},
      {"measurement": "EC50", "setting": "MT2", "value": 18, "unit": "nM"}
    ]},
    {"smiles": "CC(C)(C)NC(=O)[C@@H]1C[C@@H]2CCCC[C@@H]2CN1C[C@@H](O)[C@H](Cc1ccccc1)NC(=O)[C@H](CC(N)=O)NC(=O)c1ccc2ccccc2n1", "values": [
      {"measurement": "EC50", "setting": "MT2", "value": 5, "unit": "nM"}
    ]},
    {"smiles": "CC(C)[C@H](NC(=O)c1ccc2ccccc2c1)C(=O)N[C@@H](Cc1ccccc1)[C@H](O)CN1CC2CCCCC2C[C@H]1C(=O)NC(C)(C)C", "note": "(stereo partly drawn)", "values": [
      {"measurement": "IC50", "setting": "[1]", "value": 0.9, "unit": "nM"},
      {"measurement": "EC50", "setting": "MT2", "value": 8, "unit": "nM"}
    ]},
    {"smiles": "CC(C)(C)NC(=O)[C@@H]1CCCN1C[C@@H](O)[C@@H]1Cc2ccc(cc2)OCCCOc2cc3ccccc3cc2C(=O)N[C@@H](CC(N)=O)C(=O)N1", "values": [
      {"measurement": "IC50", "setting": "[1]", "value": 400, "unit": "nM"}
    ]},
    {"smiles": "CC(C)[C@@H]1NC(=O)/C=C\\CCCCOc2ccc(cc2)C[C@@H]([C@H](O)CN2CC3CCCCC3C[C@H]2C(=O)NC(C)(C)C)NC1=O", "note": "(stereo partly drawn)", "values": [
      {"measurement": "IC50", "setting": "[2]", "value": 9, "unit": "nM"},
      {"measurement": "EC50", "setting": "MT2", "value": 31, "unit": "nM"}
    ]},
    {"smiles": "CC(C)[C@@H]1NC(=O)CCCCCCOc2ccc(cc2)C[C@@H]([C@H](O)CN2CC3CCCCC3C[C@H]2C(=O)NC(C)(C)C)NC1=O", "note": "(stereo partly drawn)", "values": [
      {"measurement": "IC50", "setting": "[1]", "value": 1, "unit": "nM"},
      {"measurement": "EC50", "setting": "MT2", "value": 4, "unit": "nM"}
    ]},
    {"smiles": "CC(=O)N[C@H](C(=O)N[C@@H](Cc1ccccc1)[C@H](O)CN1CC2CCCCC2C[C@H]1C(=O)NC(C)(C)C)C(C)C", "note": "(stereo partly drawn)", "values": [
      {"measurement": "IC50", "setting": "[1]", "value": 3, "unit": "nM"},
      {"measurement": "EC50", "setting": "MT2", "value": 29, "unit": "nM"}
    ]},
    {"smiles": "CC(C)[C@@H]1NC(=O)c2ccccc2OCCCOc2ccc(cc2)C[C@@H]([C@H](O)CN2CC3CCCCC3C[C@H]2C(=O)NC(C)(C)C)NC1=O", "note": "(stereo partly drawn)", "values": [
      {"measurement": "IC50", "setting": "[1]", "value": 8, "unit": "nM"},
      {"measurement": "EC50", "setting": "MT2", "value": 20, "unit": "nM"}
    ]},
    {"smiles": "CCCCCCC(=O)N[C@H](C(=O)N[C@@H](Cc1ccccc1)[C@H](O)CN1CC2CCCCC2C[C@H]1C(=O)NC(C)(C)C)C(C)C", "note": "(stereo partly drawn)", "values": [
      {"measurement": "IC50", "setting": "[1]", "value": 6, "unit": "nM"},
      {"measurement": "EC50", "setting": "MT2", "value": 378, "unit": "nM"}
    ]},
    {"smiles": "CC(C)(C)NC(=O)[C@@H]1C[C@@H]2CCCC[C@@H]2CN1C[C@@H](O)[C@@H]1Cc2ccc(cc2)OCCCOc2cc3ccccc3cc2C(=O)N[C@@H](CC(N)=O)C(=O)N1", "values": [
      {"measurement": "IC50", "setting": "[1]", "value": 10, "unit": "nM"},
      {"measurement": "EC50", "setting": "MT2", "value": 14, "unit": "nM"}
    ]},
    {"smiles": "CC(C)[C@@H]1NC(=O)/C=C\\CCCOc2ccc(cc2)C[C@@H]([C@H](O)CN2CC3CCCCC3C[C@H]2C(=O)NC(C)(C)C)NC1=O", "note": "(stereo partly drawn)", "values": [
      {"measurement": "IC50", "setting": "[1]", "value": 7.3, "unit": "nM"},
      {"measurement": "EC50", "setting": "MT2", "value": 36, "unit": "nM"}
    ]}
  ]
}
